Reference: patent US20250019374A1, “PROTEIN TYROSINE PHOSPHATASE INHIBITORS AND METHODS OF USE THEREOF” (Calico Life Sciences LLC, priority 2021, published 2025)
Where two headings read alike, the source gives them in different places.

Key:
[1] = biological target: His tagged PTPN2 (TC45) protein (Homo sapiens (Human), UniProt P17706); assay: PTPN2 Mobility Shift Assay (MSA); assay type: biochemical; conditions: for Dihydrobenzofuran or Indoline x-fold>potency biochemical: x-fold versus corresponding chromane comparator, PTPN2 MSA
Sequence of His tagged PTPN2 (TC45) protein (P17706 other isoform, or with tags, fused parts or gaps): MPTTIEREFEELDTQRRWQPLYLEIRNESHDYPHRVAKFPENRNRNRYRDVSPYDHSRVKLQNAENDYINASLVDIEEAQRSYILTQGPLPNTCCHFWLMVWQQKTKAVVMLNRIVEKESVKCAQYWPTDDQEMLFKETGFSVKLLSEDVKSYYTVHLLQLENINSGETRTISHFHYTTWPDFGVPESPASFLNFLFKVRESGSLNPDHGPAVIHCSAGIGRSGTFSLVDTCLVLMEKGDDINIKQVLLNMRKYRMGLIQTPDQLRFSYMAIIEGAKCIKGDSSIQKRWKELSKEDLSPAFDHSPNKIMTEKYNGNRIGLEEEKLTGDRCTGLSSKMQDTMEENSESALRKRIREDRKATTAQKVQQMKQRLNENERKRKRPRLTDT
Method in brief: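 His-tagged human PTPN2 (TC45), 0.5 nM, preincubated with compound (12-point, 1:3) 10 min at room temperature in HEPES pH 7.5 buffer with EDTA, EGTA, DTT. Dephosphorylation of 2 μM fluorescent phospho-insulin-receptor peptide over 10 min read by mobility shift; IC50 from % inhibition.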

[2] = biological target: His tagged full-length PTPN1 protein (Homo sapiens (Human), UniProt P18031); assay: PTPN1 Mobility Shift Assay (MSA); assay type: biochemical; conditions: enzyme 0.5 nM, substrate 2 μM
Sequence of His tagged full-length PTPN1 protein (P18031 whole entry): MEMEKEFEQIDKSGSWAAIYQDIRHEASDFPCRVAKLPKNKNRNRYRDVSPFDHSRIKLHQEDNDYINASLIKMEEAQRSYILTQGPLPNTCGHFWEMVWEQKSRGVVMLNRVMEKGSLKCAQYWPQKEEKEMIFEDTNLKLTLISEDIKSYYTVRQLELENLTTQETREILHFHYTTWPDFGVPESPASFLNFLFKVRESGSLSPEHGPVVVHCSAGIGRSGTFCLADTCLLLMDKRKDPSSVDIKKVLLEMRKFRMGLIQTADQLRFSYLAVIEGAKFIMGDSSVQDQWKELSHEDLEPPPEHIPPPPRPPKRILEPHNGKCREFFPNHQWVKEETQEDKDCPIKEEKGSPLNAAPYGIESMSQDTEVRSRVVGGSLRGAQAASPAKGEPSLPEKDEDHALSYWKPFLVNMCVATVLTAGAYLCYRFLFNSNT
Method in brief: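 Enzyme at 0.5 nM was preincubated with compound (12-point, 1:3 dilution) for 10 min at room temperature in pH 7.5 HEPES buffer with EDTA, EGTA and DTT. OG488-labelled phosphorylated insulin-receptor peptide at 2 µM was then added for 10 min. After quench, % substrate dephosphorylation was read by mobility shift, and IC50 came from % inhibition.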

[3] = tested on: IFNγ-induced STAT1 phosphorylation (pSTAT1) in B16F10 cells; assay: B16F10 Phospho-STAT1 HTRF proximal pharmacodynamic (PD) assay; assay type: cell-based, murine; conditions: for EC50: B16-F10, B16F10 cells; for Dihydrobenzofuran or Indoline x-fold>potency cellular: x-fold versus corresponding chromane comparator, B16F10 pSTAT1
Method in brief: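 B16F10 cells in phenol red-free DMEM/10% FBS were dosed for 3 h at 37 °C in a 10-point, 3-fold series from 50 μM, then stimulated with 100 nM mouse IFNγ for 10 min and stopped with 3.3 μM staurosporine. pSTAT1 in lysates was measured by HTRF (665 nm emission), and EC50s were fitted from dose-response curves.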

[4] = Table 3, dihydrobenzofuran or indoline compound (X = O or NH)
[5] = 3 hours compound, 100 nM mouse IFNγ 10 minutes, read-out: B16F10 IFNγ Induced pSTAT1 EC50
[6] = Mus musculus, Table 3, dihydrobenzofuran or indoline compound (X = O or NH), read-out: pSTAT1 EC50

SMILES	IC50 [2] [nM]	EC50 [3, 5] [nM]	EC50 [3, 6] [nM]	IC50 [1, 4] [nM]	IC50 ([1]; enzyme 0.5 nM, substrate 2 μM) [nM]	Dihydrobenzofuran or Indoline x-fold>potency biochemical [1]	Dihydrobenzofuran or Indoline x-fold>potency cellular [3]
O=C1CN(c2c(O)cc3c(c2F)CC(CNCCC2COC2)N3)S(=O)(=O)N1 (stereo not drawn) [Compound 144, 5-[4-fluoro-6-hydroxy-2-({[2-(oxetan-3-yl)ethyl]amino}methyl)-2,3-dihydro-1H-indol-5-yl]-1λ^6,2,5-thiadiazolidine-1,1,3-trione]	> 100	7180	–	–	10 to 100	–	–
CCCC(C)NC[C@H]1Cc2c(cc(O)c(N3CC(=O)NS3(=O)=O)c2F)N1 (stereo partly drawn) [Compound 148, 5-[(2R)-4-fluoro-6-hydroxy-2-{[(pentan-2-yl)amino]methyl}-2,3-dihydro-1H-indol-5-yl]-1λ^6,2,5-thiadiazolidine-1,1,3-trione]	10 to 100	1850	–	–	< 10	–	–
CC[C@@H](C)NC[C@H]1Cc2c(cc(O)c(N3CC(=O)NS3(=O)=O)c2F)N1 [Compound 149, 5-[(2R)-2-({[(2R)-butan-2-yl]amino}methyl)-4-fluoro-6-hydroxy-2,3-dihydro-1H-indol-5-yl]-1λ^6,2,5-thiadiazolidine-1,1,3-trione]	10 to 100	1560	–	–	< 10	–	–
CCCCNC[C@H]1Cc2c(cc(O)c(N3CC(=O)NS3(=O)=O)c2F)N1 [Compound 150, 5-{(2R)-2-[(butylamino)methyl]-4-fluoro-6-hydroxy-2,3-dihydro-1H-indol-5-yl}-1λ^6,2,5-thiadiazolidine-1,1,3-trione]	10 to 100	2180	–	–	10 to 100	–	–
O=C1CN(c2c(O)cc3c(c2F)C[C@H](CO)N3)S(=O)(=O)N1 [Compound 151, 5-[(2R)-4-fluoro-6-hydroxy-2-(hydroxymethyl)-2,3-dihydro-1H-indol-5-yl]-1λ^6,2,5-thiadiazolidine-1,1,3-trione]	10 to 100	2770	–	–	10 to 100	–	–
O=C1CN(c2c(O)cc3c(c2F)C[C@H](CNCCC2CC2)N3)S(=O)(=O)N1 [Compound 152, 5-[(2R)-2-{[(2-cyclopropylethyl)amino]methyl}-4-fluoro-6-hydroxy-2,3-dihydro-1H-indol-5-yl]-1λ^6,2,5-thiadiazolidine-1,1,3-trione]	10 to 100	1170	–	–	10 to 100	–	–
CC(C)(C)CCNC[C@H]1Cc2c(cc(O)c(N3CC(=O)NS3(=O)=O)c2F)N1 [Compound 153, 5-[(2R)-2-{[(3,3-dimethylbutyl)amino]methyl}-4-fluoro-6-hydroxy-2,3-dihydro-1H-indol-5-yl]-1λ^6,2,5-thiadiazolidine-1,1,3-trione]	10 to 100	2010	–	–	10 to 100	–	–
CC(C)C1CC(CNC[C@H]2Cc3c(cc(O)c(N4CC(=O)NS4(=O)=O)c3F)N2)C1 (stereo partly drawn) [Compound 154, 5-{(2R)-4-fluoro-6-hydroxy-2-[({[3-(propan-2-yl)cyclobutyl]methyl}amino)methyl]-2,3-dihydro-1H-indol-5-yl}-1λ^6,2,5-thiadiazolidine-1,1,3-trione]	10 to 100	1880	–	–	< 10	–	–
CC(C)CN(C)C[C@H]1Cc2c(cc(O)c(N3CC(=O)NS3(=O)=O)c2F)N1 [Compound 155, 5-[(2R)-4-fluoro-6-hydroxy-2-{[methyl(2-methylpropyl)amino]methyl}-2,3-dihydro-1H-indol-5-yl]-1λ^6,2,5-thiadiazolidine-1,1,3-trione]	10 to 100	15700	–	–	10 to 100	–	–

The next lines start with results.

IC50 [2] [nM]	EC50 [3, 5] [nM]	EC50 [3, 6] [nM]	SMILES	IC50 [1, 4] [nM]	IC50 ([1]; enzyme 0.5 nM, substrate 2 μM) [nM]	Dihydrobenzofuran or Indoline x-fold>potency biochemical [1]	Dihydrobenzofuran or Indoline x-fold>potency cellular [3]
10 to 100	1560	156000	O=C1CN(c2c(O)cc3c(c2F)C[C@H](CNCC2CCOCC2)N3)S(=O)(=O)N1 [Compound 138, 5-[(2R)-4-fluoro-6-hydroxy-2-({[(oxan-4-yl)methyl]amino}methyl)-2,3-dihydro-1H-indol-5-yl]-1λ^6,2,5-thiadiazolidine-1,1,3-trione]	21.6	10 to 100	0.8	20.6
10 to 100	1560	1560	CC(C)CCNC[C@H]1Cc2c(cc(O)c(N3CC(=O)NS3(=O)=O)c2F)N1 [Compound 139, 5-[(2R)-4-fluoro-6-hydroxy-2-{[(3-methylbutyl)amino]methyl}-2,3-dihydro-1H-indol-5-yl]-1λ^6,2,5-thiadiazolidine-1,1,3-trione]	19.8	10 to 100	0.8	4.5
10 to 100	701	701	O=C1CN(c2c(O)cc3c(c2F)C[C@H](CNCCC(F)F)N3)S(=O)(=O)N1 [Compound 140, 5-[(2R)-2-{[(3,3-difluoropropyl)amino]methyl}-4-fluoro-6-hydroxy-2,3-dihydro-1H-indol-5-yl]-1λ^6,2,5-thiadiazolidine-1,1,3-trione]	15.2	10 to 100	0.6	5.1
10 to 100	704	–	O=C1CN(c2c(O)cc3c(c2F)C[C@H](CNCCC(F)(F)F)N3)S(=O)(=O)N1 [Compound 141, 5-[(2R)-4-fluoro-6-hydroxy-2-{[(3,3,3-trifluoropropyl)amino]methyl}-2,3-dihydro-1H-indol-5-yl]-1λ^6,2,5-thiadiazolidine-1,1,3-trione]	–	10 to 100	–	–
10 to 100	1140	–	CCC(C)CNC[C@H]1Cc2c(cc(O)c(N3CC(=O)NS3(=O)=O)c2F)N1 (stereo partly drawn) [Compound 142, 5-[(2R)-4-fluoro-6-hydroxy-2-{[(2-methylbutyl)amino]methyl}-2,3-dihydro-1H-indol-5-yl]-1λ^6,2,5-thiadiazolidine-1,1,3-trione]	–	10 to 100	–	–
10 to 100	1000	–	O=C1CN(c2c(O)cc3c(c2F)C[C@H](CNCC2CC(F)(F)C2)N3)S(=O)(=O)N1 [Compound 143, 5-[(2R)-2-({[(3,3-difluorocyclobutyl)methyl]amino}methyl)-4-fluoro-6-hydroxy-2,3-dihydro-1H-indol-5-yl]-1λ^6,2,5-thiadiazolidine-1,1,3-trione]	–	10 to 100	–	–
10 to 100	1970	–	O=C1CN(c2c(O)cc3c(c2F)CC(CNCCCC(F)F)N3)S(=O)(=O)N1 (stereo not drawn) [Compound 145, 5-(2-{[(4,4-difluorobutyl)amino]methyl}-4-fluoro-6-hydroxy-2,3-dihydro-1H-indol-5-yl)-1λ^6,2,5-thiadiazolidine-1,1,3-trione]	–	10 to 100	–	–
10 to 100	1830	–	O=C1CN(c2c(O)cc3c(c2F)C[C@H](CNCC2CCCC2)N3)S(=O)(=O)N1 [Compound 146, 5-[(2R)-2-{[(cyclopentylmethyl)amino]methyl}-4-fluoro-6-hydroxy-2,3-dihydro-1H-indol-5-yl]-1λ^6,2,5-thiadiazolidine-1,1,3-trione]	–	10 to 100	–	–
10 to 100	1840	–	O=C1CN(c2c(O)cc3c(c2F)C[C@H](CNCC2CC2)N3)S(=O)(=O)N1 [Compound 147, 5-[(2R)-2-{[(cyclopropylmethyl)amino]methyl}-4-fluoro-6-hydroxy-2,3-dihydro-1H-indol-5-yl]-1λ^6,2,5-thiadiazolidine-1,1,3-trione]	–	10 to 100	–	–
